Where two headings read alike, the source gives them in different places.
Tests used:
Mite [1] = settings: mite on okra plants, green house, dose 1 ml/gm/lit. spray; for % Mortality at 48 Hrs. / Total No. of dead insect at 48 Hrs.: 48 hrs after application; for % Corrected Mortality at 48 Hrs.: corrected for water control
Mite [2] = settings: Dose 1 ml/gm/lit.; for Total No. of dead insect at 48 Hrs.: 10 insects/treatment, 4 replications, okra leaves
Alternaria alternata [3] = assay: In vitro poisoned food technique against fungus (Ex. 20); assay type: cell-based; settings: poisoned food technique, PDA medium, dose 1 ml/gm/lit., after seven days
chili seedlings = assay: Response of chili plants, greenhouse growth (Ex. 31); assay type: in vivo; settings: chili seedlings, dose 1 ml/gm/lit; for CCI 5th Day / Plant Height (cm) 5th Day: 5th day after application; for CCI 10th Day / Plant Height (cm) 10th Day: 10th day after application; for CCI % Increase over pre on 10th Day / Plant Height % Increase over pre on 10th Day / Root Lenght (cm) 10th Day / Stem Girth % Increase over pre on 10th Day / Root Lenght % Increase over control: 10th day; for Root Lenght % Increase over control: vs water control
Aphid [4] = assay: whole plant or invertebrate; settings: 48 h
Thrips [5] = assay: whole plant or invertebrate; settings: in Gossypium hirsutum, 48 h
Thrips [6] = settings: thrips on cotton plants, greenhouse, dose 1 ml/gm/lit. spray; for % Mortality at 48 Hrs. / Total No. of dead insect at 48 Hrs.: 48 hrs after application; for % Corrected Mortality at 48 Hrs.: corrected for water control
[7] = cited from earlier work
tomato seedlings = assay: Response of tomato plants, greenhouse growth (Ex. 30); assay type: in vivo; settings: tomato seedlings, dose 1 ml/gm/lit; for Plant Height 5th Day / Stem Girth 5th Day / CCI 5th Day: 5th day after application; for Plant Height 10th Day / Stem Girth 10th Day / CCI 10th Day: 10th day after application; for Plant Height % Increase over pre on 10th Day / Stem Girth % Increase over pre on 10th Day / CCI % Increase over pre on 10th Day / Root Length (cm) 10th Day / Root Length % Increase over control: 10th day; for Root Length % Increase over control: vs water control
Thrips [8] = settings: Thrips on cotton leaves, dose 1 ml/gm/lit.; for Total No. of dead insect at 48 Hrs.: 10 insects/treatment
Helicoverpa armigera [9] = settings: Helicoverpa armigera on okra fruits, dose 1 ml/gm/lit., 72 Hrs.; for Total No. of dead insect at 72 Hrs.: 10 insects/treatment, 4 replications; for % Corrected Mortality at 72 Hrs.: corrected for water control
Mealy Bug [10] = settings: Mealy Bug on cotton leaves, dose 1 ml/gm/lit., 48 Hrs.; for Total No. of dead insect at 48 Hrs.: 10 insects/treatment, 4 replications; for % Corrected Mortality at 48 Hrs.: corrected for water control
Spodoptera litura [11] = settings: Spodoptera litura on castor leaves, dose 1 ml/gm/lit.; for Total No. of dead insect at 72 Hrs.: 10 insects/treatment
Helicoverpa armigera [12] = settings: Helicoverpa armigera 3rd instar on chickpea plants, dose 1 ml/gm/lit. spray; for % Mortality at 72 Hrs.: 72 hrs after application; for % Corrected Mortality at 72 Hrs.: corrected for water control
Aphid [13] = settings: Aphids on cotton plants, green house, dose 1 ml/gm/lit.; for Total No. of dead insect at 48 Hrs.: 10 insects/plant, 10 plants/treatment
Aphid [14] = settings: Dose 1 ml/gm/lit.; for Total No. of dead insect at 48 Hrs.: 10 insects/treatment, 4 replications, cotton leaves
Mealy Bug [15] = settings: mealy bug on cotton plants, green house, dose 1 ml/gm/lit. spray; for % Mortality at 48 Hrs. / Total No. of dead insect at 48 Hrs.: 48 hrs after application; for % Corrected Mortality at 48 Hrs.: corrected for water control
Spodoptera litura [16] = assay: whole plant or invertebrate; settings: 72 h
Alternaria alternata [17] = assay: Alternaria leaf spot/blight on inoculated tomato plants (Ex. 28); assay type: in vivo; settings: tomato plants, Alternaria alternata; after 7 days; dose 1 ml/gm/lit
Spodoptera litura [18] = settings: Spodoptera litura 3rd instar on cabbage plants, dose 1 ml/gm/lit. spray
[19] = read-out: % Corrected Mortality at 48 Hrs.
[20] = read-out: % Mortality at 48 Hrs.
[21] = Table 13, descriptive, no test described
[22] = 72 hrs, corrected for water control
[23] = 48 hrs, corrected for water control

CC1=CC(=O)C(C(C)C)=CC1=O [Thymoquinone]
% Mortality at 48 Hrs. (Mite [1]): 30.00%
Total No. of dead insect at 48 Hrs. (Mite [1]): 30.00
% Corrected Mortality at 48 Hrs. (Mite [1]): 26.32%
Total No. of dead insect at 48 Hrs. (Mite [2]): 3.25
% Corrected Mortality at 48 Hrs. (Mite [2]): 27.03%
% Mortality at 48 Hrs. (Mite [2]): 32.50%
Mean colony Diameter (mm) (Alternaria alternata [3]): 54.00 mm
inhibition of growth at 1 mL or g/L (Alternaria alternata [3]; vs untreated control, read-out: % Inhibition of growth): 38.6%
CCI 5th Day (chili seedlings): 13.76
Plant Height (cm) 5th Day (chili seedlings): 5.77 cm
CCI % Increase over pre on 10th Day (chili seedlings): 58.19%
Plant Height % Increase over pre on 10th Day (chili seedlings): 63.27%
Root Lenght (cm) 10th Day (chili seedlings): 4.16 cm
Stem Girth % Increase over pre on 10th Day (chili seedlings): 57.48%
CCI 10th Day (chili seedlings): 14
Plant Height (cm) 10th Day (chili seedlings): 6.89 cm
Root Lenght % Increase over control (chili seedlings): 52.17%
mortality at 1 mL or g/L (Aphid [4]; [19]): 38.2%
mortality at 1 mL or g/L (Aphid [4]; [20]): 47.5%
mortality at 1 mL or g/L (Thrips [5]; [19]): 11.4%
mortality at 1 mL or g/L (Thrips [5]; [20]): 22.5%
% Mortality at 48 Hrs. (Thrips [6]): 20.00%
Total No. of dead insect at 48 Hrs. (Thrips [6]): 20.00
% Corrected Mortality at 48 Hrs. (Thrips [6]): 11.11%
Acaricidal Activity - Mode of action [7, 21]: Contact acaricidal activity
Antioxidant Activity - Mode of action [7, 21]: Reducing Oxidative Stress
Bactericidal Activity - Mode of action [7, 21]: Inhibitory effect on spore
Insecticidal Activities - Mode of action [7, 21]: Decreased larval survival
Plant Height 5th Day (tomato seedlings): 6.58 cm
Stem Girth 5th Day (tomato seedlings): 1.68 mm
Plant Height 10th Day (tomato seedlings): 7.69 cm
Stem Girth 10th Day (tomato seedlings): 2.30 mm
Plant Height % Increase over pre on 10th Day (tomato seedlings): 41.36%
Stem Girth % Increase over pre on 10th Day (tomato seedlings): 74.24%
CCI 5th Day (tomato seedlings): 14.21
CCI % Increase over pre on 10th Day (tomato seedlings): 30.73%
Root Length (cm) 10th Day (tomato seedlings): 4.42 cm
CCI 10th Day (tomato seedlings): 16.21
Root Length % Increase over control (tomato seedlings): 32.93%
Total No. of dead insect at 48 Hrs. (Thrips [8]; 48 hrs after application): 2.25
Total No. of dead insect at 72 Hrs. (Helicoverpa armigera [9]): 4.25
% Mortality at 72 Hrs. (Helicoverpa armigera [9]): 42.50%
% Corrected Mortality at 72 Hrs. (Helicoverpa armigera [9]): 42.50%
Total No. of dead insect at 48 Hrs. (Mealy Bug [10]): 5.25
% Mortality at 48 Hrs. (Mealy Bug [10]): 52.50%
% Corrected Mortality at 48 Hrs. (Mealy Bug [10]): 50.00%
Total No. of dead insect at 72 Hrs. (Spodoptera litura [11]; 72 hrs after application): 4.25
% Mortality at 72 Hrs. (Helicoverpa armigera [12]): 45.00%
% Corrected Mortality at 72 Hrs. (Helicoverpa armigera [12]): 45.00%
Total No. of dead insect at 48 Hrs. (Aphid [13]; 48 hrs): 47.50
Total No. of dead insect at 48 Hrs. (Aphid [14]): 4.75
% Corrected Mortality at 48 Hrs. (Aphid [14]; 48 hrs): 40.00%
% Mortality at 48 Hrs. (Mealy Bug [15]): 50.00%
Total No. of dead insect at 48 Hrs. (Mealy Bug [15]): 50.00
% Corrected Mortality at 48 Hrs. (Mealy Bug [15]): 44.44%
mortality at 1 mL or g/L (Spodoptera litura [16]; read-out: % Corrected Mortality at 72 Hrs.): 39.5%
mortality at 1 mL or g/L (Spodoptera litura [16]; read-out: % Mortality at 72 Hrs.): 42.5%
% Disease reduction over Control (Alternaria alternata [17]): 44.63%

Berberine
% Mortality at 48 Hrs. (Mite [1]): 45.00%
Total No. of dead insect at 48 Hrs. (Mite [1]): 45.00
% Corrected Mortality at 48 Hrs. (Mite [1]): 42.11%
Total No. of dead insect at 48 Hrs. (Mite [2]): 4.75
% Corrected Mortality at 48 Hrs. (Mite [2]): 43.24%
% Mortality at 48 Hrs. (Mite [2]): 47.50%
Mean colony Diameter (mm) (Alternaria alternata [3]): 45.50 mm
% Inhibition of growth (Alternaria alternata [3]; vs untreated control): 48.30%
CCI 5th Day (chili seedlings): 13.04
Plant Height (cm) 5th Day (chili seedlings): 6.15 cm
CCI % Increase over pre on 10th Day (chili seedlings): 36.98%
Plant Height % Increase over pre on 10th Day (chili seedlings): 50.11%
Root Lenght (cm) 10th Day (chili seedlings): 3.11 cm
Stem Girth % Increase over pre on 10th Day (chili seedlings): 40.15%
CCI 10th Day (chili seedlings): 14.04
Plant Height (cm) 10th Day (chili seedlings): 6.89 cm
Root Lenght % Increase over control (chili seedlings): 13.75%
CCI Pre (chili seedlings; pre-application baseline): 10.25
Plant Height (cm) Pre (chili seedlings; pre-application baseline): 4.59 cm
% Mortality at 48 Hrs. (Thrips [6]): 67.50%
Total No. of dead insect at 48 Hrs. (Thrips [6]): 67.50
% Corrected Mortality at 48 Hrs. (Thrips [6]): 63.89%
Antifungal Activity - Mode of action [7, 21]: Inhibit multipath mechanisms,
Antioxidant Activity - Mode of action [7, 21]: Reducing Oxidative Stress
Bactericidal Activity - Mode of action [7, 21]: Resulting in DNA damage,
Insecticidal Activities - Mode of action [7, 21]: Disturbed moulting, larval-
Nematicidal Activity - Mode of action [7, 21]: Effective against root knot
Phytotonic Effect ([7]; Table 13, effect on plants, descriptive): Boost
Plant Height 5th Day (tomato seedlings): 6.78 cm
Stem Girth 5th Day (tomato seedlings): 2.01 mm
Plant Height 10th Day (tomato seedlings): 7.34 cm
Stem Girth 10th Day (tomato seedlings): 2.25 mm
Plant Height % Increase over pre on 10th Day (tomato seedlings): 29.91%
Stem Girth % Increase over pre on 10th Day (tomato seedlings): 54.11%
Plant Height Pre (tomato seedlings; before application): 5.65 cm
Stem Girth Pre (tomato seedlings; before application): 1.46 mm
CCI 5th Day (tomato seedlings): 14.53
CCI % Increase over pre on 10th Day (tomato seedlings): 24.86%
Root Length (cm) 10th Day (tomato seedlings): 4.13 cm
CCI 10th Day (tomato seedlings): 15.67
Root Length % Increase over control (tomato seedlings): 24.12%
CCI Pre (tomato seedlings; pre-application baseline): 12.55
% Mortality at 72 Hrs. (Spodoptera litura [18]; 72 hrs after application): 67.50%
% Corrected Mortality at 72 Hrs. (Spodoptera litura [18]; [22]): 65.79%
Total No. of dead insect at 48 Hrs. (Thrips [8]; 48 hrs after application): 6.50
% Mortality at 48 Hrs. (Thrips [8]; 48 hrs after application): 65.00%
% Corrected Mortality at 48 Hrs. (Thrips [8]; [23]): 60.00%
Total No. of dead insect at 72 Hrs. (Helicoverpa armigera [9]): 6.50
% Mortality at 72 Hrs. (Helicoverpa armigera [9]): 65.00%
% Corrected Mortality at 72 Hrs. (Helicoverpa armigera [9]): 65.00%
Total No. of dead insect at 48 Hrs. (Mealy Bug [10]): 7.50
% Mortality at 48 Hrs. (Mealy Bug [10]): 75.00%
% Corrected Mortality at 48 Hrs. (Mealy Bug [10]): 73.68%
Total No. of dead insect at 72 Hrs. (Spodoptera litura [11]; 72 hrs after application): 7.00
% Mortality at 72 Hrs. (Spodoptera litura [11]; 72 hrs after application): 70.00%
% Corrected Mortality at 72 Hrs. (Spodoptera litura [11]; [22]): 68.42%
% Mortality at 72 Hrs. (Helicoverpa armigera [12]): 62.50%
% Corrected Mortality at 72 Hrs. (Helicoverpa armigera [12]): 62.50%
Total No. of dead insect at 48 Hrs. (Aphid [13]; 48 hrs): 55.00
% Mortality at 48 Hrs. (Aphid [13]; 48 hrs after application): 55.00%
% Corrected Mortality at 48 Hrs. (Aphid [13]; [23]): 47.06%
Total No. of dead insect at 48 Hrs. (Aphid [14]): 5.25
% Corrected Mortality at 48 Hrs. (Aphid [14]; 48 hrs): 45.71%
% Mortality at 48 Hrs. (Aphid [14]; 48 hrs): 52.50%
% Mortality at 48 Hrs. (Mealy Bug [15]): 70.00%
Total No. of dead insect at 48 Hrs. (Mealy Bug [15]): 70.00
% Corrected Mortality at 48 Hrs. (Mealy Bug [15]): 66.67%
% Disease reduction over Control (Alternaria alternata [17]): 52.89%

From patent publication US20250351832A1, “PHYTOCHEMICALS AS BIOPESTICIDES AND BIOSTIMULANTS” (KAY BEE BIO ORGANICS PVT. LTD., priority 2024, published 2025)
